Reference: ChEMBL document CHEMBL2413049, “Design and synthesis of novel 1,25-dihydroxyvitamin D3 analogues having a spiro-oxetane fused at the C2 position in the A-ring” (Bioorg Med Chem, 2013)

What was measured:
[1] = target: T1, Vitamin D3 receptor (Bos taurus) (UniProt Q28037); assay: Displacement of [3H]-1alpha,25 dihydroxyvitamin D3 from bovine thymus VDR after 60 mins relative to 1alpha,25-dihydroxyvitamin D3
T1 sequence (whole entry): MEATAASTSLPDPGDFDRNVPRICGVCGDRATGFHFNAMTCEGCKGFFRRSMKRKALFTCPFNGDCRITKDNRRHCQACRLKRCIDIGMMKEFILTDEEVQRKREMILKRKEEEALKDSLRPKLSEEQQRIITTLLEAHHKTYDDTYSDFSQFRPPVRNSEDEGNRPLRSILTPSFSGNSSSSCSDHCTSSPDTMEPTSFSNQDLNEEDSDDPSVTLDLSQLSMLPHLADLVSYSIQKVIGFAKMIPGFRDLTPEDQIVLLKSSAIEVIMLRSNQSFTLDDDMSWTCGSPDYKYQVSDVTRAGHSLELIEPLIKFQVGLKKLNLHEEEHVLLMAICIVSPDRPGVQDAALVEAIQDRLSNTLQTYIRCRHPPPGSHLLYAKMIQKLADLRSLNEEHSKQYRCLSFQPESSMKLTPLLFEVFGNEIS

[2] = target: T2, Vitamin D3 receptor (Homo sapiens) (UniProt P11473); assay: Binding affinity to VDR (unknown origin) relative to 1alpha,25-dihydroxyvitamin D3
T2 sequence (whole entry): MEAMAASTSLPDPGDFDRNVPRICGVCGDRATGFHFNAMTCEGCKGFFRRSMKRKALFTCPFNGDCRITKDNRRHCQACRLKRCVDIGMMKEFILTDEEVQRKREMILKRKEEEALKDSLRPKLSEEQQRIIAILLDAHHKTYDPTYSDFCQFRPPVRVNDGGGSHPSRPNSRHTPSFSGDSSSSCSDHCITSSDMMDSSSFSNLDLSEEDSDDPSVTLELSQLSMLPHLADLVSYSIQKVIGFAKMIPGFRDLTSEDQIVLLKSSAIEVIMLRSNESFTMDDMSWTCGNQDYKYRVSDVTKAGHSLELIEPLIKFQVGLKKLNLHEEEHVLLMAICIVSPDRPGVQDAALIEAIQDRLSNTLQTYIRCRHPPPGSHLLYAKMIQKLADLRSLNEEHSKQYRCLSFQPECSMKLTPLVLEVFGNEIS

[3] = target: T1, Vitamin D3 receptor (Bos taurus); assay: Binding affinity to bovine thymus VDR relative to 1alpha,25-dihydroxyvitamin D3

fold change (FC) [1]	SMILES	further results
0.04	C=C1/C(=C\C=C2/CCC[C@]3(C)[C@@H]([C@H](C)CCCC(C)(C)O)CC[C@@H]23)C[C@H](O)C2(COC2)[C@@H]1O	
5	C=C1/C(=C\C=C2/CCC[C@]3(C)[C@@H]([C@H](C)CCCC(C)(C)O)CC[C@@H]23)C[C@@H](O)C2(COC2)[C@@H]1O	
0.001	C=C1/C(=C\C=C2/CCC[C@]3(C)[C@@H]([C@H](C)CCCC(C)(C)O)CC[C@@H]23)C[C@H](O)C2(COC2)[C@H]1O	
100	C=C1/C(=C\C=C2/CCC[C@]3(C)[C@@H]([C@H](C)CCCC(C)(C)O)CC[C@@H]23)C[C@@H](O)C[C@@H]1O	
	C=C1/C(=C\C=C2/CCC[C@]3(C)[C@@H]([C@H](C)CCCC(C)(C)O)CC[C@@H]23)C[C@@H](O)C(C)(C)[C@@H]1O	fold change (FC) [2]: 3
	C=C1/C(=C\C=C2/CCC[C@]3(C)[C@@H]([C@H](C)CCCC(C)(C)O)CC[C@@H]23)C[C@@H](O)[C@@H](C)[C@@H]1O	fold change (FC) [3]: 13
	C=C1/C(=C\C=C2/CCC[C@]3(C)[C@@H]([C@H](C)CCCC(C)(C)O)CC[C@@H]23)C[C@@H](O)[C@H](C)[C@@H]1O	fold change (FC) [3]: 400
0.002	C=C1/C(=C\C=C2/CCC[C@]3(C)[C@@H]([C@H](C)CCCC(C)(C)O)CC[C@@H]23)C[C@@H](O)C2(COC2)[C@H]1O	
